Data reported in patent US9232796B2, “Herbicidal compositions comprising 4-amino-3-chloro-5-fluoro-6-(4-chloro-2-fluoro-3-methoxyphenyl) pyridine-2-carboxylic acid or a derivative thereof and acetyl-CoA carboxylase (ACCase) inhibitors” (DOW AGROSCIENCES LLC, priority 2012, dated 2016).

Experiments:
FIMMI [1] = assay: Example V post-emergence field trials in direct-seeded rice; format: in vivo, Fimbristylis miliacea; conditions: foliar, field trial Tolima, Colombia
Procedure: Multiple field trials were conducted under commercial grower field conditions in Tolima, Colombia; Thessaloniki, Greece; Bianze and Copiano, Italy; and Humphrey, Ark., USA. Trials sites were located in commercially grown fields of direct-seeded rice (Oryza sativa) using standard herbicide small plot research methodology. Plots varied from 2 to 3 meter (m)×5 to 8 m (width×length) with 4 replicates per treatment. The rice crop was grown using normal cultural practices for fertilization, seeding, watering, flooding and maintenance to ensure good growth of the crop and the weeds.
All treatments in the field trials were applied using a backpack compressed air/gas sprayer with flat fan nozzles (80° or 110°) calibrated to apply 187 to 300 L/ha spray volume at approximately 200-400 kPa nozzle pressure. Commercially available products of cyhalofop-butyl (Clincher 180EC, Clincher 200EC, and Clincher SF (285 gr ai/L EC)) were mixed in water at appropriate formulated product rates to achieve the desired rates based on a unit area of application (hectare) to achieve the desired rates as shown. Treatments were rate at 19 to 58 days after application (DAA) as compared to the untreated control plants. Visual weed control was scored on a scale of 0 to 100 percent where 0 corresponds to no injury and 100 corresponds to complete kill. […]

FIMMI [2] = assay: Example VI in-water applied ternary mixtures, greenhouse, transplanted paddy rice weeds; format: in vivo, Fimbristylis miliacea (L.) Vahl
How it was run: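 Compound A (SC, acid-equivalent basis) alone or with cyhalofop-R-butyl or metamifop plus a third herbicide, injected into paddy water of greenhouse-grown transplanted rice and weeds at 1st–4th leaf stage (~29/26 °C). Visual injury scored 0–100% after ~3 weeks vs untreated; expected mixture effects by Colby's equation.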

## COc1c(Cl)ccc(-c2nc(C(=O)OCc3ccccc3)c(Cl)c(N)c2F)c1F [Compound A Benzyl Ester, benzyl ester of 4-amino-3-chloro-5-fluoro-6-(4-chloro-2-fluoro-3-methoxy-phenyl)pyridine-2-carboxylic acid]
FIMMI [1]; 24 gae/ha
  Visual Weed Control (%) - 19 DAA FIMMI Obs: 39%
FIMMI [2]; 1.09 gae/ha
  Visual Weed Control (%) - 21 DAA FIMMI Obs: 8%
FIMMI [2]; 1.09 gae/ha, first set
  Visual Weed Control (%) - 21 DAA FIMMI Obs: 8%
FIMMI [2]; 2.19 gae/ha
  Visual Weed Control (%) - 21 DAA FIMMI Obs: 33%
FIMMI [2]; 2.19 gae/ha, first set
  Visual Weed Control (%) - 21 DAA FIMMI Obs: 33%
FIMMI [2]; 4 gae/ha
  Visual Weed Control (%) - 24 DAA FIMMI Obs: 0%
FIMMI [2]; 4 gae/ha, second set
  Visual Weed Control (%) - 21 DAA FIMMI Obs: 62%
FIMMI [2]; 8 gae/ha
  Visual Weed Control (%) - 24 DAA FIMMI Obs: 50%
FIMMI [2]; 16 gae/ha
  Visual Weed Control (%) - 24 DAA FIMMI Obs: 30%
FIMMI [2]; Table 67, 4 gae/ha, 24 DAA
  Visual Weed Control (%) - 24 DAA FIMMI Obs: 0%
FIMMI [2]; Table 67, 8 gae/ha, 24 DAA
  Visual Weed Control (%) - 24 DAA FIMMI Obs: 50%
FIMMI [2]; Table 67, 16 gae/ha, 24 DAA
  Visual Weed Control (%) - 24 DAA FIMMI Obs: 30%

## CCCCOC(=O)[C@@H](C)Oc1ccc(Oc2ccc(C#N)cc2F)cc1 [Cyhalofop-butyl, butyl(2R)-2-[4-(4-cyano-2-fluorophenoxy)phenoxy]propanoate, reference compound]
FIMMI [1]; 190 gai/ha
  Visual Weed Control (%) - 19 DAA FIMMI Obs: 16%
FIMMI [2]; 22.5 gai/ha
  Visual Weed Control (%) - 21 DAA FIMMI Obs: 33%
FIMMI [2]; 22.5 gai/ha, second set
  Visual Weed Control (%) - 21 DAA FIMMI Obs: 0%
FIMMI [2]; 45 gai/ha
  Visual Weed Control (%) - 21 DAA FIMMI Obs: 0%
FIMMI [2]; 45 gai/ha, first set
  Visual Weed Control (%) - 21 DAA FIMMI Obs: 0%
FIMMI [2]; 45 gai/ha, second set
  Visual Weed Control (%) - 21 DAA FIMMI Obs: 0%
FIMMI [2]; 90 gai/ha
  Visual Weed Control (%) - 24 DAA FIMMI Obs: 0%
FIMMI [2]; 180 gai/ha
  Visual Weed Control (%) - 24 DAA FIMMI Obs: 20%
FIMMI [2]; Table 67, 180 gai/ha, 24 DAA
  Visual Weed Control (%) - 24 DAA FIMMI Obs: 20%
